The results in this text go back to patent US10729137B2, “Quaternary fungicidal mixture” (priority 2013, dated 2020).

Assay [1] concerns creeping bentgrass (Agrostis stolonifera). Put plainly: Field study, Turf Quality (TQ) rating of treated plots. The settings on record: ordinal scale 1-9 (8 and higher ideal, under 6 unacceptable), same plots, rates and timing, 15 days after final application. It counts as in vivo. How it is done:
(§1) A field study was conducted to identify which combinations would maintain or improve Turf Quality (TQ) and prevent or cure crown, basal or foliar pathogens such as dollar spot. Each solo treatment, 2-way (Pair), 3-way (Triad), and the present quaternary fungicidal mixture was applied bi-weekly beginning Jul. 1, 2013 prior to any evidence of decline in TQ or appearance of disease. Experimental plots were laid out in a Randomized Complete Block design.
(§2) The dosage of each fungicidal active substance was held constant regardless of whether it appeared alone or in combination with other fungicides in order to quantify synergy according to the Colby formula. The quaternary mixture of the present subject matter was applied at the lowest rate specified herein, about 5.5 lb active substance per acre. Applications were made to replicate plots of creeping bentgrass (Agrostis stolonifera), each measuring 3 ft×5 ft. The turf was mowed as needed to maintain standard fairway height (blade length less than 0.5″). Four applications were made at 14 day re-treatment intervals, which is a conventional treatment schedule at the time of year when outbreaks of turfgrass disease occur reliably in the mid-Atlantic region (Greenville, Del.).
The mix rate and volume of dilute spray applied to each plot was held constant. A CO2 backpack sprayer outfitted with TeeJet AI9504E flat fan nozzle delivered a water dilution of each treatment at the use rate of 43.5 gallons per acre (407 liters Ha^−1) and 35 psi (0.375 gallons per minute).
Plots were evaluated and disease or cause of lesion identified 15 days after the final scheduled application, which was made on 12 August. At that time researchers rated each plot's TQ, the incidence of disease and its severity. Percent disease ratings were calculated on the basis of the percent of area of each plot showing symptoms of a disease, primarily dollar spot. Turf quality and color ratings are typically used as an indicator of the health of the turfgrass. Turf quality is scored on an ordinal scale from 1-9, where plots rated 8 and higher are considered ideal for color, uniformity and density, around 6.5 and above is considered acceptable, and ratings under 6 unacceptable for turfgrass disease and/or turf quality.
Disease pressure evidenced by the untreated control ratings was considered severe. Six untreated control plots averaged 40% incidence, primarily due to a continuous increase in dollar spot pressure over time. By the end of the trial, TQ of the untreated plots declined to a low level, where leaf die-back, bleaching and lesions rated an average TQ of 4.2. Turf quality of plots treated with each active substance alone at these dosages was poor, averaging 3.9.

Assay [2] has as its system dollar spot, Sclerotinia homeocarpa. Put plainly: Field study of disease control on creeping bentgrass plots (percent inhibition, Colby synergy). It counts as in vivo. The settings on record: four applications at 14 day intervals, rated 15 days after final application, chlorothalonil 3.1, iprodione 1.03, thiophanate methyl 1.03, tebuconazole 0.31 LBai/A where included.
Source text: In the context of the present subject matter, the term “synergy” is as defined by S. R. Colby in an article entitled “Calculation of the synergistic and antagonistic responses of herbicide combinations” published in the journal Weeds, 1967, 15, p. 20-22, incorporated herein by reference in its entirety. The action expected for a given combination of four active components can be calculated as follows:
[formula] in which E represents the expected percentage of fungicidal control (percent inhibition) for the multiple mixture of fungicides at defined doses (for example equal to x, y, z and w, respectively). X is the percentage of fungicide control observed by chlorothalonil at a defined dose (equal to x). Y is the percentage of fungicide control observed by iprodione at a defined dose (equal to y). Z is the percentage of fungicide control observed by thiophanate methyl at a defined dose (equal to z). W is the percentage of fungicide control observed by tebuconazole at a defined dose (equal to w). Here, efficacy or percent inhibition is determined in %. 0% means efficacy that corresponds to the Control, i.e., as if no treatment had been applied. Whereas, a percent inhibition of 100% means that no infection is observed. When the percent inhibition observed for the combination is greater than E, there is a synergistic effect. When the percent inhibition observed for the combination is equal to E, there is an additive effect and wherein the percent inhibition observed for the combination is lower than E, there is an antagonistic effect.
In the Colby model, one can transform its use of “percent inhibition” (or control) to “percent-of-untreated Control” to solve for E1 rather than E and simplify the equation:
[formula] where E1=100−E (conversely, solving for E, 100−E1=E), X1=100−X, Y1=100−Y, Z1=100−Z, and W1=100−W. Although many combinations of fungicides have been studied and evaluated by means of the Colby Index, it is quite clear by modeling such synthetic expressions of synergy that the addition of a third, or even fourth, active ingredient to the premix may encounter the Point of Diminishing Returns caused by correction factors for 3- and 4-way interactions that offset the increase in E (or decrease in E1). In marked contrast, the present subject matter has shown an expansive effect and performance boost so great that differences between the observed and expected values computed according to Colby can best be used as a descriptive statistic confirming the quarternary fungicidal mixture's obvious effect.
as §1, §2
The mix rate and volume of dilute spray applied to each plot was held constant. […]

Entries after “also recorded” stand apart in the source; their conditions may differ.

For `CC(C)NC(=O)N1CC(=O)N(c2cc(Cl)cc(Cl)c2)C1=O` [Iprodione], the entries for the “Turf Quality” value in assay [1] and in assay [1] (listed as iprodione) were 4.0 and “no better than the untreated control”, respectively. Besides, the “Percent Inhibition” value is 5.8% in assay [2] and “no better than the untreated control” in assay [2] (listed as iprodione).
For `CC(C)(C)C(O)(CCc1ccc(Cl)cc1)Cn1cncn1` (stereo not drawn) [Tebuconazole], the “Turf Quality” value in assay [1] stood at 4.0. In addition, the “Percent Inhibition” value in assay [2] amounted to 19.3%.
`COC(=O)NC(=S)Nc1ccccc1NC(=S)NC(=O)OC` [Thio methyl, Thiophanate methyl]: the “Turf Quality” value was 3.3 in assay [1] and “no better than the untreated control; also recorded: significantly lower ratings than those of the untreated Control” in assay [1] (listed as thiophanate methyl). Further, the “Percent Inhibition” value in assay [2] is recorded as 0%; in assay [2] (listed as thiophanate methyl), “no better than the untreated control”.
For `N#Cc1c(Cl)c(Cl)c(Cl)c(C#N)c1Cl` [Chlorothalonil], the “Turf Quality” value in assay [1] is given as 4.3. In addition, the “Percent Inhibition” value in assay [2] is recorded as 15.8%.
